Reference: patent US8455547B2, “Substituted cyclopentanes having prostaglandin activity” (Allergan, Inc., priority 2008, dated 2013)

Legend:
[1] = target: T1, TP (Homo sapiens, UniProt P21731); experiment: TP functional assay; format: cell-based
T1 sequence (P21731 1-343): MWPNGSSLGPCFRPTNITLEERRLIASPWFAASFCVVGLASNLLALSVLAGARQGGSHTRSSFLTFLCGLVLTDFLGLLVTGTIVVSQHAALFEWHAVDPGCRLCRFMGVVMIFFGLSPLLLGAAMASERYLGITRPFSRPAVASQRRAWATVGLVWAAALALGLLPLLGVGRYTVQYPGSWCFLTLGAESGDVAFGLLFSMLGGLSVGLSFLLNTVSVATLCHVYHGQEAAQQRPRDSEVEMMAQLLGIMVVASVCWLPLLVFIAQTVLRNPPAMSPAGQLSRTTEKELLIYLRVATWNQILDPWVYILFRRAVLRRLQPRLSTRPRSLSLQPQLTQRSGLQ
From the text: (§1) U.S. patent application Ser. No. 11/553,143, filed on Oct. 26, 2006, incorporated by reference herein, describes the methods used to obtain the in vitro data in Tables 1 and 2 below.

[2] = target: T2, EP4 (Homo sapiens, UniProt P35408); experiment: EP4 binding assay
From the text: as §1

[3] = target: T3, EP2 (Homo sapiens, UniProt P43116); experiment: EP2 cAMP assay; format: cell-based
From the text: as §1

[4] = target: T4, EP1 (Homo sapiens, UniProt P34995); experiment: EP1 functional assay; format: cell-based
T4 sequence (P34995 1-402): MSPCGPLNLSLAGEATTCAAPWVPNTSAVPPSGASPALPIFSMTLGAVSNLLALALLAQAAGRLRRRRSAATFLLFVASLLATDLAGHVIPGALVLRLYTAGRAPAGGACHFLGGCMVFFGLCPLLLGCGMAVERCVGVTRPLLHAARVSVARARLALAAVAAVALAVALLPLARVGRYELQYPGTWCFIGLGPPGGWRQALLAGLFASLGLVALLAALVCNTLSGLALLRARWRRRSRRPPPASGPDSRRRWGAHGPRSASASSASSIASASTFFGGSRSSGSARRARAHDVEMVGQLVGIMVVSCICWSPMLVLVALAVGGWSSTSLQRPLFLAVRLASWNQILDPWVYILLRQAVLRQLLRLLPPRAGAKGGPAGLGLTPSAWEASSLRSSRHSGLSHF
From the text: as §1

[5] = target: T5, EP3 (Homo sapiens, UniProt P43115); experiment: EP3 functional assay; format: cell-based
T5 sequence (P43115 1-390): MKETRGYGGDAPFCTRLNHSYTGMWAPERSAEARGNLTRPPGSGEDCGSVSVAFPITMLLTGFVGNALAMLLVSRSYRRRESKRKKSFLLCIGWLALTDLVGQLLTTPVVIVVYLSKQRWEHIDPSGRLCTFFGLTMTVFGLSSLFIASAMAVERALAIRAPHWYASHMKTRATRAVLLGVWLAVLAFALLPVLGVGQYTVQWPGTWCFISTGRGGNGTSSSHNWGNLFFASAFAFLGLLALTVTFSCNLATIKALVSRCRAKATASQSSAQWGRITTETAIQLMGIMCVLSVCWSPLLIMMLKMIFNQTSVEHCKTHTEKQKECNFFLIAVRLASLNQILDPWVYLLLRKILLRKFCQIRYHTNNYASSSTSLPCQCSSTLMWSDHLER
From the text: as §1

[6] = target: T3, EP2; experiment: EP2 Ca2+ signal assay; format: cell-based; details: for EP2 Ca2+ signal % PGE2: relative to PGE2
From the text: as §1

[7] = target: T3, EP2; experiment: EP2 binding assay
From the text: as §1

[8] = target: T2, EP4; experiment: EP4 Ca2+ signal assay; format: cell-based; details: for EP4 Ca2+ signal % PGE2: relative to PGE2
From the text: as §1

T2 sequence (P35408 whole entry): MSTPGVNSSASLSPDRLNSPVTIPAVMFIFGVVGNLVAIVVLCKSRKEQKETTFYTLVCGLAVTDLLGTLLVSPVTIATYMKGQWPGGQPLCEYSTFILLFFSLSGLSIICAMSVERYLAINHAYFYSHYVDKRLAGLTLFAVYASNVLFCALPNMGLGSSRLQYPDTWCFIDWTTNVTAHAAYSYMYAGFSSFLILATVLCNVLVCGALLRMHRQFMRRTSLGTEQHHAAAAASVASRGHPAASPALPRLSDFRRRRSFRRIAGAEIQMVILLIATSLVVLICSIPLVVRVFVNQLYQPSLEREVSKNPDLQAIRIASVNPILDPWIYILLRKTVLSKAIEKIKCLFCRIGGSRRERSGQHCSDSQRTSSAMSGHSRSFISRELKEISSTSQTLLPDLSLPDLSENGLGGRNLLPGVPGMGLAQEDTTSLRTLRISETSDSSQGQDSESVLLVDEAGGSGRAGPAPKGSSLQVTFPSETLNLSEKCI
T3 sequence (P43116 whole entry): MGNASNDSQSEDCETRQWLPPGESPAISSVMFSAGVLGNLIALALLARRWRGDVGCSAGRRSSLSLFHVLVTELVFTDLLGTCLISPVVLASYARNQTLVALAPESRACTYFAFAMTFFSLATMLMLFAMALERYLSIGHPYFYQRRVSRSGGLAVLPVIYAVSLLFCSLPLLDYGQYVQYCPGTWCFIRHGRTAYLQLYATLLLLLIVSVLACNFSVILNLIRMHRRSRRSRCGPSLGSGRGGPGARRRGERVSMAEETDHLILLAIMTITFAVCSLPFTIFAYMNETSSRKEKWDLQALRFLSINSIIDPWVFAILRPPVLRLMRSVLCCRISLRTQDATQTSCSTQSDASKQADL

C[C@@H](O)CCC[C@H](O)/C=C/[C@@H]1[C@@H](C/C=C\CCCC(=O)O)[C@H](Cl)C[C@H]1O
EC50 [1]: 178 nM
EC50 [2]: 885 nM
EP4 Binding % Inh [2]: 81%
EC50 [3]: 0.03 nM
EC50 [4]: 13 nM
EC50 [5]: 6 nM
EC50 [6]: 4 nM
EP2 Ca2+ signal % PGE2 [6]: 107%
EC50 [7]: 25 nM
EP2 Binding % Inh [7]: 99%
EC50 [8]: 46 nM
EP4 Ca2+ signal % PGE2 [8]: 107%

C[C@@H](O)CCC[C@H](O)/C=C/[C@@H]1[C@@H](CCCCCCC(=O)O)[C@H](Cl)C[C@H]1O
EP4 Binding % Inh [2]: 29%
EC50 [3]: 1.47 nM
EC50 [6]: 109 nM
EP2 Ca2+ signal % PGE2 [6]: 100%
EC50 [7]: 1220 nM
EP2 Binding % Inh [7]: 78%
EC50 [8]: 727 nM
EP4 Ca2+ signal % PGE2 [8]: 99%
